Legend:
Format in all cases: cell-based
[1] = test system: HCT116 cells; assay: MTT assay, 72 h, HCT116; conditions: Homo sapiens, HCT-116, mean ± SD
Procedure: (§1) The cytotoxic potential of the synthesized compounds was investigated using the MTT assay after 72 h incubation with a panel of human and murine cancer cell lines, including colorectal carcinoma (HCT116), estrogen receptor-positive breast adenocarcinoma (MCF-7), triple-negative breast adenocarcinoma (MDA-MB-231), epidermoid carcinoma (KB3-1), myeloid leukemia (K562), and glioblastoma (U373), and mouse breast carcinoma (4T1) cells. To assess the selectivity of the compounds, pseudo-normal cell lines—human keratinocytes (HaCaTs) and mouse fibroblasts (NIH3T3s)—were also tested under the same conditions.
(§2) Human breast adenocarcinoma cells of MCF-7 and MDA-MB-231 lines, human glioblastoma cells of U373 line, human chronic myelogenous leukemia cells of K562 line, human colorectal carcinoma cells of HCT116 line, and human epidermoid carcinoma cells of KB3-1 line were kindly donated by a Collection of the Institute for Cancer Research at Vienna Medical University (Vienna, Austria). Human keratinocytes of HaCaT line, murine breast carcinoma cells of 4T1 line, and murine fibroblasts of the NIH3T3 line were obtained from the Cell Collection of the R.E. Kavetsky Institute of Experimental Pathology, Oncology and Radiobiology of the National Academy of Sciences of Ukraine (Kyiv, Ukraine). MCF-7, MDA-MB-231, U373, K562, HaCaT, and NIH3T3 cells were cultured in DMEM medium (Sigma-Aldrich, Burlington, MA, USA) supplemented with 2 mM L-glutamine, 4500 mg/L glucose, and 1 mM sodium pyruvate. HCT116 and KB3-1 cells were maintained in RPMI-1640 medium supplemented with 2 mM L-glutamine (Sigma-Aldrich, USA). Both media were supplemented with 10% fetal bovine serum (Sigma-Aldrich, USA). All cell lines were incubated at 37 °C in a humidified atmosphere containing 5% CO2.
(§3) The substrate cells were seeded at a density of 5000 cells per 100 µL, while suspension K562 cells were seeded at 15,000 cells per 100 µL in 96-well plates and incubated overnight. Doxorubicin (Dox, Sigma-Aldrich, USA) was used as a reference drug. Studied substances were then added in 100 µL of culture medium, and the cells were further incubated for 72 h. Subsequently, 20 µL of MTT solution (5 mg/mL, Sigma-Aldrich, USA) was added to each well and incubated for 2–4 h. Formazan crystals were then solubilized by adding dimethyl sulfoxide (Sigma-Aldrich, USA). Absorbance was measured using a BioTek ELx800 Absorbance Reader (BioTek Instruments, Inc., Winooski, VT, USA). The results were analyzed and illustrated using GraphPad Prism (version 8.0.1; GraphPad Software, San Diego, CA, USA) and presented as a mean (M) ± standard deviation (SD). The IC50 values of the compounds were determined using nonlinear regression analysis in GraphPad Prism 10.4.2 [40].

[2] = test system: MCF-7 cells; assay: MTT assay, 72 h, MCF-7; conditions: Homo sapiens, MCF7, mean ± SD
Procedure: as §1, §2
as §3, with “Doxorubicin (Dox, Sigma-Aldrich, USA) was used as a reference drug.” left out

[3] = test system: MDA-MB-231 cells; assay: MTT assay, 72 h, MDA-MB-231; conditions: Homo sapiens, mean ± SD
Procedure: as §1, §2, §3

[4] = test system: 4T1 cells; assay: MTT assay, 72 h, 4T1; conditions: Mus musculus, mean ± SD
Procedure: as §1, §2, §3

[5] = test system: KB3-1 cells; assay: MTT assay, 72 h, KB3-1; conditions: Homo sapiens, KB 3-1, mean ± SD
Procedure: as §1, §2, §3

[6] = test system: K562 cells; assay: MTT assay, 72 h, K562; conditions: Homo sapiens, mean ± SD
Procedure: as §1, §2, §3

[7] = test system: U373 cells; assay: MTT assay, 72 h, U373; conditions: Homo sapiens, U373 MG, mean ± SD
Procedure: as §1, §2, §3

[8] = test system: HaCaT cells; assay: MTT assay, 72 h, HaCaT (pseudo-normal); conditions: Homo sapiens, mean ± SD
Procedure: as §1, §2, §3

[9] = test system: NIH3T3 cells; assay: MTT assay, 72 h, NIH3T3 (pseudo-normal); conditions: Mus musculus, mean ± SD
Procedure: as §1, §2, §3

| SMILES | IC50 [1] | IC50 [2] | IC50 [3] | IC50 [4] | IC50 [5] | IC50 [6] | IC50 [7] | IC50 [8] | IC50 [9] |
| --- | --- | --- | --- | --- | --- | --- | --- | --- | --- |
| CC(C)(C)c1ccc(/C=C2\SC3(C(=O)Nc4ccc(Br)cc43)N(c3ccc(Br)cc3)C2=O)cc1 (centres unmarked) [Compound 16, (Z)-5-Bromo-3′-(4-bromophenyl)-5′-(4-(tert-butyl)benzylidene)spiro[indoline-3,2′-thiazolidine]-2,4′-dione] | > 100 µM | > 100 µM | 53.27 ± 0.51 µM | 69 ± 5.11 µM | 29.5 ± 0.33 µM | > 100 µM | > 100 µM | > 100 µM | > 100 µM |
| COc1ccc(N2C(=O)/C(=C/C=C/c3ccccc3)SC23C(=O)Nc2ccc(Cl)cc23)cc1 (centres unmarked) [Compound 6, (Z)-5-Chloro-3′-(4-methoxyphenyl)-5′-((E)-3-phenylallylidene)spiro[indoline-3,2′-thiazolidine]-2,4′-dione] | > 100 µM | 83.3 ± 6.03 µM | 55.9 ± 5.67 µM | 68 ± 2.6 µM | 45.23 ± 0.36 µM | > 100 µM | 69.5 ± 0.9 µM | 85.3 ± 1.27 µM | > 100 µM |
| CC(C)(C)c1ccc(/C=C2\SC3(C(=O)Nc4ccc(Cl)cc43)N(Cc3ccccc3)C2=O)cc1 (centres unmarked) [Compound 17, (Z)-3′-Benzyl-5′-(4-(tert-butyl)benzylidene)-5-chlorospiro[indoline-3,2′-thiazolidine]-2,4′-dione] | 8.24 ± 0.26 µM | 6.64 ± 0.39 µM | 13.5 ± 2.21 µM | 66 ± 4.48 µM | 5.85 ± 0.42 µM | 67.9 ± 0.81 µM | 32.26 ± 0.25 µM | 10.6 ± 0.21 µM | 91 ± 1.34 µM |
| O=C1CSC2(C(=O)Nc3ccc(F)cc32)N1Cc1ccccc1 (centres unmarked) [Compound 4, 3′-Benzyl-5-fluorospiro[indoline-3,2′-thiazolidine]-2,4′-dione] | > 100 µM | > 100 µM | 99.21 ± 0.41 µM | 91.8 ± 1.55 µM | 60.2 ± 0.72 µM | 88.8 ± 4.06 µM | 98.6 ± 1.92 µM | > 100 µM | > 100 µM |
| O=C1/C(=C/c2ccc(Cl)cc2)SC2(C(=O)Nc3ccc(Cl)cc32)N1c1ccc(Cl)cc1 (centres unmarked) [Compound 11, (Z)-5-Chloro-5′-(4-chlorobenzylidene)-3′-(4-chlorophenyl)spiro[indoline-3,2′-thiazolidine]-2,4′-dione] | > 100 µM | 6 ± 0.28 µM | 6.37 ± 0.11 µM | 5.66 ± 0.27 µM | 6.95 ± 0.14 µM | 74.35 ± 0.66 µM | 66.9 ± 0.83 µM | 8.67 ± 0.49 µM | > 100 µM |
| CCOc1ccc(/C=C2\SC3(C(=O)Nc4ccc(F)cc43)N(Cc3ccccc3)C2=O)cc1 (centres unmarked) [Compound 19, (Z)-3′-Benzyl-5′-(4-ethoxybenzylidene)-5-fluorospiro[indoline-3,2′-thiazolidine]-2,4′-dione] | 62.7 ± 0.76 µM | 63.9 ± 0.59 µM | 59.3 ± 2.27 µM | 60.5 ± 1.84 µM | 35 ± 0.48 µM | > 100 µM | 54.89 ± 0.33 µM | 96.79 ± 0.78 µM | 94.35 ± 0.87 µM |
| CC(C)(C)c1ccc(/C=C2\SC3(C(=O)Nc4ccc(Cl)cc43)N(c3ccc(Cl)cc3)C2=O)cc1 (centres unmarked) [Compound 15, (Z)-5′-(4-(Tert-butyl)benzylidene)-5-chloro-3′-(4-chlorophenyl)spiro[indoline-3,2′-thiazolidine]-2,4′-dione] | > 100 µM | 77.4 ± 2.9 µM | 30.7 ± 0.45 µM | 46.6 ± 2.98 µM | 9.77 ± 0.78 µM | > 100 µM | 79.3 ± 1.31 µM | > 100 µM | 90.32 ± 0.68 µM |
| O=C1/C(=C/c2ccc(N3CCOCC3)cc2)SC2(C(=O)Nc3ccc(Cl)cc32)N1c1ccc(Cl)cc1 (centres unmarked) [Compound 10, (Z)-5-Chloro-3′-(4-chlorophenyl)-5′-(4-morpholinobenzylidene)spiro[indoline-3,2′-thiazolidine]-2,4′-dione] | > 100 µM | > 100 µM | > 100 µM | > 100 µM | 16.9 ± 0.86 µM | > 100 µM | > 100 µM | > 100 µM | > 100 µM |
| COc1ccc(N2C(=O)/C(=C/c3ccc(Cl)cc3)SC23C(=O)Nc2ccc(Cl)cc23)cc1 (centres unmarked) [Compound 7, (Z)-5-Chloro-5′-(4-chlorobenzylidene)-3′-(4-methoxyphenyl)spiro[indoline-3,2′-thiazolidine]-2,4′-dione] | > 100 µM | 52.2 ± 2.15 µM | 8.55 ± 0.06 µM | 29 ± 0.92 µM | 17.2 ± 0.21 µM | 27.7 ± 3.02 µM | 72.3 ± 0.8 µM | 8.63 ± 0.57 µM | 79.7 ± 0.93 µM |
| O=C1/C(=C/c2ccc(-c3ccccn3)cc2)SC2(C(=O)Nc3ccc(Cl)cc32)N1c1ccc(Cl)cc1 (centres unmarked) [Compound 13, (Z)-5-Chloro-3′-(4-chlorophenyl)-5′-(4-(pyridin-2-yl)benzylidene)spiro[indoline-3,2′-thiazolidine]-2,4′-dione] | 41.4 ± 0.62 µM | > 100 µM | > 100 µM | > 100 µM | 0.99 ± 0.08 µM | 5.55 ± 0.17 µM | > 100 µM | > 100 µM | > 100 µM |
| O=C1CSC2(C(=O)Nc3ccc(Cl)cc32)N1c1ccc(Cl)cc1 (centres unmarked) [Compound 2, 5-Chloro-3′-(4-chlorophenyl)spiro[indoline-3,2′-thiazolidine]-2,4′-dione] | > 100 µM | 84.9 ± 6.51 µM | 62.69 ± 0.22 µM | 73 ± 7.02 µM | 51.77 ± 0.26 µM | 9.96 ± 1.17 µM | 77.91 ± 0.56 µM | 82.8 ± 1.94 µM | 98.25 ± 0.64 µM |
| COc1ccc(N2C(=O)/C(=C/c3ccc(-c4ccccn4)cc3)SC23C(=O)Nc2ccc(Cl)cc23)cc1 (centres unmarked) [Compound 12, (Z)-5-Chloro-3′-(4-methoxyphenyl)-5′-(4-(pyridin-2-yl)benzylidene)spiro[indoline-3,2′-thiazolidine]-2,4′-dione] | > 100 µM | > 100 µM | > 100 µM | > 100 µM | 0.97 ± 0.11 µM | > 100 µM | > 100 µM | > 100 µM | > 100 µM |
| COc1cccc2c1C(=O)c1c(O)c3c(c(O)c1C2=O)C[C@@](O)(C(=O)CO)C[C@@H]3O[C@H]1C[C@H](N)[C@H](O)[C@H](C)O1 [Dox, Doxorubicin, reference compound] | 0.9 ± 0.11 µM | – | 0.6 ± 0.08 µM | 0.73 ± 0.1 µM | 0.53 ± 0.08 µM | 0.95 ± 0.11 µM | 0.35 ± 0.09 µM | 3.1 ± 0.18 µM | 0.63 ± 0.12 µM |
| O=C1CSC2(C(=O)Nc3ccc(Br)cc32)N1c1ccc(Br)cc1 (centres unmarked) [Compound 3, 5-Bromo-3′-(4-bromophenyl)spiro[indoline-3,2′-thiazolidine]-2,4′-dione] | 88.9 ± 6.33 µM | 64 ± 4.77 µM | 56.5 ± 1.93 µM | 43.8 ± 1.76 µM | 46.7 ± 0.54 µM | 7.99 ± 0.12 µM | 49.4 ± 1.33 µM | 38.4 ± 0.77 µM | 82.9 ± 2.05 µM |
| CCOc1ccc(/C=C2\SC3(C(=O)Nc4ccc(Cl)cc43)N(c3ccc(Cl)cc3)C2=O)cc1 (centres unmarked) [Compound 9, (Z)-5-Chloro-3′-(4-chlorophenyl)-5′-(4-ethoxybenzylidene)spiro[indoline-3,2′-thiazolidine]-2,4′-dione] | > 100 µM | 74.5 ± 4.73 µM | 7.89 ± 0.33 µM | 7.84 ± 0.49 µM | 22.3 ± 1.17 µM | 67.1 ± 0.7 µM | 98.22 ± 0.87 µM | > 100 µM | > 100 µM |
